Starred links: 1 amine or outer side, 2 acyl side, 3 side chain; linkers in the order of their positions; H or OH if unused. Positions of bridges follow the written chain, without caps; N, C: chain ends. Non-standard residues stand in square brackets, D forms with d. Residues, ends and D or L forms follow the SMILES beside them. Chains are numbered I, II in the order given. Actinocin(9to1) = Cc1c2oc3c(C)ccc(C(=O)[*:1])c3nc-2c(C(=O)[*:2])c(N)c1=O; NMeV = CN[C@H](C(=O)O)C(C)C; Sar = CNCC(=O)O
Tests used:
[1] = test system: CD8 CTL clone 5491.2000.48; assay: 51Cr release CTL assay, CD8 clone 5491.2000.48; type: cell-based, human; conditions: autologous targets infected with wild-type HSV-2 in the presence of 5 μg/ml actinomycin D, E:T 20:1
[2] = test system: CD8 CTL clone 1874.1991.22; assay: 51Cr release CTL assay, CD8 clone 1874.1991.22; type: cell-based, human; conditions: autologous targets infected with wild-type HSV-2 in the presence of 5 μg/ml actinomycin D, E:T 20:1
[3] = test system: CD8 CTL clone 5101.1999.23; assay: 51Cr release CTL assay, CD8 clone 5101.1999.23; type: cell-based, human; conditions: autologous targets infected with wild-type HSV-2 in the presence of 5 μg/ml actinomycin D, E:T 20:1
[4] = test system: CD4+ T cell clone; assay: Reactivity with a CD4+ T cell clone (HLA DRBI*1501); type: cell-based, human; conditions: in association with HLA class II molecule DRBI*1501
Excerpt: This epitope is recognized in association with the HLA class II molecule DRBI*1501, which is fairly prevalent in most human populations.

[5] = test system: genital HSV-2 lesion-infiltrating lymphocytes; conditions: four of seven patients; Koelle et al., 1998; cited from earlier work
[6] = test system: B1 cell line; assay: Proliferation of short-term HSV-specific B1 cell lines from seven HSV-2 infected adults; type: cell-based, human; conditions: seven HSV-2 infected immunocompetent adults; positive = stimulation index >= 4.0
Procedure: For each subject, PBMC were isolated and plated at 2×10^6 cells/well in 2 mls of T-cell medium in 24-well plates and stimulated in vitro with a 1:500 dilution of UV-inactivated HSV-2 strain 333 for five days. At that time, 40 units/ml recombinant human IL-2 was added for an additional five to six days, giving rise to a short-term, HSV-specific cell line termed a B1 cell line.
Reactivity to individual HSV-2 proteins was assessed as follows. Proliferation assays were set up on 96-well round bottom microtiter plates, and each condition was performed in triplicate. To each well, 1×10^5 autologous irradiated (3300 rad gamma) PBMC were added as antigen presenting cells. To each well, 1×10^4 B1 cells were added. The following control substances were added: media, UV-treated mock virus preparation diluted 1:500, UV-treated HSV-2 strain 333 diluted 1:500, glycoproteins B or D or VP16 protein of HSV-2 (purified) at 4 micrograms per ml final concentration. The response to UV-treated HSV-2 was expected to be positive and served as a positive control for the viability and overall specificity of the cells. […]
Positive responses were scored if the stimulation index (mean cpm ^3H thymidine incorporation for test antigen/mean cpm ^3H thymidine incorporation for relevant control antigen) was greater than or equal to 4.0. […]

## Cc1c2oc3c(C)ccc(C(=O)N[C@@H]4C(=O)N[C@H](C(C)C)C(=O)N5CCC[C@H]5C(=O)N(C)CC(=O)N(C)[C@@H](C(C)C)C(=O)O[C@@H]4C)c3nc-2c(C(=O)N[C@@H]2C(=O)N[C@H](C(C)C)C(=O)N3CCC[C@H]3C(=O)N(C)CC(=O)N(C)[C@@H](C(C)C)C(=O)O[C@@H]2C)c(N)c1=O [actinomycin D] (I: T[dV]P[Sar][NMeV] / II: T[dV]P[Sar][NMeV]; ester I:1-I:C, II:1-II:C; linker I:N-II:N via Actinocin(9to1))
[1]
  percent specific release: 49.2%
[2]
  percent specific release: 45.1%
[3]
  percent specific release: 35.8%

## RLRELNHIREHLNLPLVRSA [VP16 288-307]
[4]
  reactivity with a CD4+ T cell clone: reactivity

B1: VP16 of HSV-2: VP16 protein of HSV-2 (purified) (protein)
chain: MDLLVDDLFADADGVSPPPPRPAGGPKNTPAAPPLYATGRLSQAQLMPSPPMPVPPAALFNRLLDDLGFSAGPALCTMLDTWNEDLFSGFPTNADMYRECKFLSTLPSDVIDWGDAHVPERSPIDIRAHGDVAFPTLPATRDELPSYYEAMAQFFRGELRAREESYRTVLANFCSALYRYLRASVRQLHRQAHMRGRNRDLREMLRTTIADRYYRETARLARVLFLHLYLFLSREILWAAYAEQMMRPDLFDGLCCDLESWRQLACLFQPLMFINGSLTVRGVPVEARRLRELNHIREHLNLPLVRSAAAEEPGAPLTTPPVLQGNQARSSGYFMLLIRAKLDSYSSVATSEGESVMREHAYSRGRTRNNYGSTIEGLLDLPDDDDAPAEAGLVAPRMSFLSAGQRPRRLSTTAPITDVSLGDELRLDGEEVDMTPADALDDFDLEMLGDVESPSPGMTHDPVSYGALDVDDFEFEQMFTDAMGIDDFGG
[5]
  patients with proliferative responses in bulk cultures of lesion-infiltrating lymphocytes: 57%
[6]
  % (subjects with positive response): 0%
  n (subjects with positive response): 0
